Drawing on patent US8865697B2, “Crystalline (6R,7R)-7-{2-(5-amino-[1,2,4] thiadiazol-3-yl)-2-[(Z)-trityloxyimino]-acetylamino}-3-[(R)-1′-tert-butoxycarbonyl-2-oxo-[1,3′]bipyrrolidinyl-(3E)-ylidenemethyl]-8-oxo-5-thia-1-aza-bicyclo[4.2.0]oct-2-ene-2-carboxylic acid benzhydryl ester; its manufacture and use” (Basilea Pharmaceutica AG, priority 2008, dated 2014), this text covers solubility for 2 compounds.

The data set is described as follows: Solubility in methylene chloride. Conditions: in methylene chloride at about 25° C. It counts as physicochemical. On the procedure: In methylene chloride, on the other hand, the DMSO solvate according to the present invention is readily soluble at temperatures in the range as indicated in the preceding paragraph (solubility about 70 g/l at about 25° C.). […] Therefore dissolving the DMSO solvate methylene chloride results in that the compound of formula (I) precipitates from this solution. This precipitate of the compound of formula (I) is generally again of greater purity than the DMSO solvate dissolved, and of such a particle size, that it can very fast be filtered or centrifuged off from the solvent. Furthermore, the precipitate of compound of formula (I) is generally in substantially crystalline form when precipitated from methylene chloride. More particularly, the precipitate comprises the compound of formula (I) at least partially in form of single-crystals.

For `CC(C)(C)OC(=O)N1CC[C@@H](N2CC/C(=C\C3=C(C(=O)OC(c4ccccc4)c4ccccc4)N4C(=O)[C@@H](NC(=O)/C(=N\OC(c5ccccc5)(c5ccccc5)c5ccccc5)c5nsc(N)n5)[C@H]4SC3)C2=O)C1` [compound of formula (I), (6R,7R)-7-{2-(5-Amino-[1,2,4]thiadiazol-3-yl)-2-[(Z)-trityloxyimino]-acetylamino}-3-[(R)-1′-tert-butoxycarbonyl-2-oxo-[1,3′]bipyrrolidinyl-3E-ylidenemethyl]-8-oxo-5-thia-1-aza-bicyclo[4.2.0]oct-2-ene-2-carboxylic acid benzhydryl ester], the solubility entry was “about 8 g/l”. The same measure for `CC(C)(C)OC(=O)N1CC[C@@H](N2CC/C(=C\C3=C(C(=O)OC(c4ccccc4)c4ccccc4)N4C(=O)[C@@H](NC(=O)/C(=N\OC(c5ccccc5)(c5ccccc5)c5ccccc5)c5nsc(N)n5)[C@H]4SC3)C2=O)C1` [DMSO solvate]: “about 70 g/l”.
